Test results reported in patent US20140128352A1, “COMPOUNDS AND METHODS FOR MODULATING MITOCHONDRIAL METABOLISM AND REACTIVE OXYGEN SPECIES PRODUCTION” (Buck Institute for Research on Aging, priority 2012, published 2014).
Entries after “also recorded” stand apart in the source; their conditions may differ.

How the values were obtained:
site IQ = assay: Retest of IQ ROS production (expanded microplate panel / cuvette); assay type: biochemical, rat; details: for effect on IQ ROS with subsaturating substrate: subsaturating (0.5 mM) succinate
Procedure: Compounds identified as site-selective hits as well as structural analogs were re-sourced from ChemBridge and dissolved in DMSO as 80 mM stocks. Master Titration Plates were prepared manually by serially diluting 80 mM compound stocks between 0.08 and 80 mM on 96-well microplates. Four compounds were titrated in duplicate on each plate. Additional DMSO controls were interspersed across these plates to serve as local normalization controls during analysis since two-way median polishing was not appropriate. Just prior to use, compounds were diluted 100-fold with standard buffer (10X). The same known inhibitor positive controls were included on each plate as during high-throughput screening.
The five core ROS assays and single ΔΨm assay were carried out as in the initial high-throughput screen. In addition, several assays were included to help validate the specificity of the compounds for a given site of production. All compounds were titrated against separate assays targeting IQ ROS and IIIQo ROS using subsaturating (0.5 mM final) succinate. […] Specifically, ΔΨm was monitored separately with 5 mM succinate (in the presence of 4 μM rotenone) in addition to glutamate and malate as before. The use of different substrates was designed to reveal compounds that disrupt mitochondrial function in a substrate specific manner.
Most frequently, these changes involved the use of different substrates to supply electrons from an alternative entry point in the chain. If a site of ROS production is being targeted selectively by a compound, then in many cases the supply of electrons should not influence the effectiveness of this compound at suppressing ROS production. […] Alternative conditions are listed below: • 1) IQ ROS: 5 mM succinate with 1 mM glutamate • 2) IF ROS: 5 mM malate only as substrate (in the presence of 4 μM rotenone) • 3) IIIQo ROS: 5 mM succinate (in the presence of 3 mM malonate, 4 uM rotenone, and 2.5 μM antimycin A) • 4) IIIQo ROS: 25 mM glycerol phosphate (in the presence of 1 mM malonate, 4 μM rotenone, and 2.5 μM antimycin A) • 5) SDH: 0.5 mM succinate (in the presence of 4 uM rotenone, 2.5 uM antimycin A, and 2 μM myxothiazol) • 6) GPDH: Vary the concentration of glycerol phosphate in the presence or absence of 250 nM free calcium to allosterically activate GPDH (all in the presence of 4 μM rotenone, 2.5 uM antimycin A, 1 mM malonate, and 2 μM myxothiazol) • 7) ΔΨm: Vary the concentration of glycerol phosphate in the presence or absence of 250 nM free calcium to allosterically activate GPDH and in the presence or absence of 80 ng/mL nigericin (all in the presence of 4 μM rotenone)
The fluorescence values in each well were scaled in relation to the intra-plate DMSO and known inhibitor controls as in the high-throughput screen except that median values for local interspersed DMSO wells (3-6 wells) were used rather than just the 8 DMSO wells in columns 1 and 12. This normalization was applied in place of the two-way median polish used during high-throughput screening to minimize row and column effects. […] At this stage, strong candidates were not necessarily excluded from further testing if subtle off-target effects were observed (e.g. loss of specificity or signs of general inhibition at the highest concentrations). Rather, these candidates were often pursued for more detailed mechanistic studies with the expectation that subsequent structure activity analysis would provide insight into which structurally related compounds would provide the optimal specificity for a given site of production.
Candidate compounds that remained site-selective following robotics assisted retesting were subsequently tested for effects on ROS production and ΔΨm with a Varian Cary Eclipse fluorimeter (excitation 550 nm, emission at 590 nm). This experimental format allows kinetic measurements of ROS production and ΔΨm with more accurate temperature control, sample stirring, and background correction. […]

site IF = target: T1, site IF (Rattus norvegicus, UniProt Q5XIH3); assay: Retest of IF ROS production (expanded microplate panel); assay type: biochemical
T1 construct: freshly isolated muscle mitochondria were assayed; from tissue; host or cells: rat skeletal muscle mitochondria (Wistar, Harlan Laboratories)
T1 sequence (Q5XIH3 21-464 limits assumed): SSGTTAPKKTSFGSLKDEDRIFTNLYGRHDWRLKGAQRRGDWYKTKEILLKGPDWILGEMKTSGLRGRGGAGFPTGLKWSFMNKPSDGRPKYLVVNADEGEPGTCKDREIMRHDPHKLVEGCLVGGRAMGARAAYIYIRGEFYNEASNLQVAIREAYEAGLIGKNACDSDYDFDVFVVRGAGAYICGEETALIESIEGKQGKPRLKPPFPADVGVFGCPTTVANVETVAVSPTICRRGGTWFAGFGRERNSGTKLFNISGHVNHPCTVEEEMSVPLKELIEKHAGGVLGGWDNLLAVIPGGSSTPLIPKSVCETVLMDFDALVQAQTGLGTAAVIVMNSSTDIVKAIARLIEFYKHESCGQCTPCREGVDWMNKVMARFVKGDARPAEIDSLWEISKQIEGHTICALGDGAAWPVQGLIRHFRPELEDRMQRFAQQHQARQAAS
Procedure: (§1) Compounds identified as site-selective hits as well as structural analogs were re-sourced from ChemBridge and dissolved in DMSO as 80 mM stocks. Master Titration Plates were prepared manually by serially diluting 80 mM compound stocks between 0.08 and 80 mM on 96-well microplates. Four compounds were titrated in duplicate on each plate. Additional DMSO controls were interspersed across these plates to serve as local normalization controls during analysis since two-way median polishing was not appropriate. Just prior to use, compounds were diluted 100-fold with standard buffer (10X). The same known inhibitor positive controls were included on each plate as during high-throughput screening. The five core ROS assays and single ΔΨm assay were carried out as in the initial high-throughput screen. In addition, several assays were included to help validate the specificity of the compounds for a given site of production. […] The use of different substrates was designed to reveal compounds that disrupt mitochondrial function in a substrate specific manner. […] Most frequently, these changes involved the use of different substrates to supply electrons from an alternative entry point in the chain. If a site of ROS production is being targeted selectively by a compound, then in many cases the supply of electrons should not influence the effectiveness of this compound at suppressing ROS production. […] The fluorescence values in each well were scaled in relation to the intra-plate DMSO and known inhibitor controls as in the high-throughput screen except that median values for local interspersed DMSO wells (3-6 wells) were used rather than just the 8 DMSO wells in columns 1 and 12. This normalization was applied in place of the two-way median polish used during high-throughput screening to minimize row and column effects. […] At this stage, strong candidates were not necessarily excluded from further testing if subtle off-target effects were observed (e.g. loss of specificity or signs of general inhibition at the highest concentrations). Rather, these candidates were often pursued for more detailed mechanistic studies with the expectation that subsequent structure activity analysis would provide insight into which structurally related compounds would provide the optimal specificity for a given site of production.

site IIIQo = target: T2, site IIIQo (Rattus norvegicus, UniProt P00159+P20788); assay: Retest of IIIQo ROS production (expanded microplate panel); assay type: biochemical
T2 construct: freshly isolated muscle mitochondria were assayed; from tissue; host or cells: rat skeletal muscle mitochondria (Wistar, Harlan Laboratories)
Procedure: as §1

With O=[N+]([O-])c1ccc(Oc2ccc(S(=O)(=O)NC3CCCCC3)cc2)cc1 [Compound 4] the “effects on other major sites of ROS production” value (site IQ; 2.5 uM) was “without discernible effects on any other major sites within mitochondria”.
With O=C(O)C1CCCCC1C(=O)NC1CCCCC1 (stereo not drawn) [Compound 19] the “effect on IF ROS and selectivity for site IF” value (site IF) was “selectively lowers ROS production from site IF”, the inhibition at 2.5 µM (site IF; 2.5 μM) was 24% and the “effect on IQ ROS with saturating substrate” value (site IQ; retest, saturating substrate) was “unaffected until the highest concentration tested (80 μM)”. For the same compound, the “effect on IQ ROS with subsaturating substrate” value (site IQ; retest) was “minimal effects on IQ ROS production driven with subsaturating substrate until 25 μM” and the “effect on IIIQo ROS” value (site IIIQo) was “unaffected until the highest concentration tested (80 μM)”.
For COc1cc(CN(CCN(C)C)Cc2ccccc2)cc(OC)c1 [Compound 31], the “effect on IF ROS and selectivity for site IF” value (site IF) was “improved selectivity toward the IF site in combination with a lowered effect on ΔΨm” and the “effect on IQ ROS with subsaturating substrate” value (site IQ; retest) was “stronger off-target effects on IQ ROS when driven by low concentration succinate”.
In the case of Cc1ccc(C)c(CN(CCCN(C)C)CCCN(C)C)c1 [Compound 32], the “effect on IF ROS and selectivity for site IF” value (site IF) is reported as “selectively lowers ROS production from site IF; also recorded: further improved selectivity for IF without compromising ΔΨm”.
In the case of COc1ccc(Cl)cc1N(Cc1ccccc1)Cc1ccccc1 [Compound 34], the “effect on IQ ROS with subsaturating substrate” value (site IQ; retest) is reported as “consistently increased IQ ROS but only with subsaturating substrate”, the “effect on IIIQo ROS” value (site IIIQo) is reported as “selectively lowers ROS production from site IIIQo independent of substrate concentration” and the inhibition at 8 µM (site IIIQo; 8 μM, independent of substrate concentration) is reported as 60%.
For CC1=CC(C)(C)N(Cc2ccc([N+](=O)[O-])cc2)c2ccccc21 [Compound 37], the “effect on IQ ROS with subsaturating substrate” value (site IQ; retest) was “decreased IQ ROS with low substrate; also recorded: lowers site IQ ROS with subsaturating succinate” and the “effect on IIIQo ROS” value (site IIIQo) was “lowers ROS from site IIIQo independent of substrate concentration”.
With O=C(O)CSc1cccc(C(=O)Nc2ccc(Br)cc2)c1 [Compound 47] the “effect on IIIQo ROS” value (site IIIQo) was “off-target effect on site IIIQo ROS”.
